Source: patent publication US8906946B2, “TRPM8 receptor antagonists” (Dompe' S.p.A., priority 2011, dated 2014)

What was measured:
CYP2C9 = CYP2C9 (Homo sapiens, UniProt P11712); assay: CYP inhibition 2C9; format: in vitro ADME; conditions: 2C9, 10 μM
hepatocytes = assay: Metabolic stability hepatocytes, rat; format: in vitro ADME
hTRPV1 channels = target: T1, hTRPV1 channels (Homo sapiens, UniProt Q8NER1); assay: Selectivity analysis, calcium influx assay, hTRPV1 in HEK293 cells; format: cell-based
T1 construct: expressed in transfected cells; host or cells: HEK293
T1 sequence (Q8NER1 whole entry): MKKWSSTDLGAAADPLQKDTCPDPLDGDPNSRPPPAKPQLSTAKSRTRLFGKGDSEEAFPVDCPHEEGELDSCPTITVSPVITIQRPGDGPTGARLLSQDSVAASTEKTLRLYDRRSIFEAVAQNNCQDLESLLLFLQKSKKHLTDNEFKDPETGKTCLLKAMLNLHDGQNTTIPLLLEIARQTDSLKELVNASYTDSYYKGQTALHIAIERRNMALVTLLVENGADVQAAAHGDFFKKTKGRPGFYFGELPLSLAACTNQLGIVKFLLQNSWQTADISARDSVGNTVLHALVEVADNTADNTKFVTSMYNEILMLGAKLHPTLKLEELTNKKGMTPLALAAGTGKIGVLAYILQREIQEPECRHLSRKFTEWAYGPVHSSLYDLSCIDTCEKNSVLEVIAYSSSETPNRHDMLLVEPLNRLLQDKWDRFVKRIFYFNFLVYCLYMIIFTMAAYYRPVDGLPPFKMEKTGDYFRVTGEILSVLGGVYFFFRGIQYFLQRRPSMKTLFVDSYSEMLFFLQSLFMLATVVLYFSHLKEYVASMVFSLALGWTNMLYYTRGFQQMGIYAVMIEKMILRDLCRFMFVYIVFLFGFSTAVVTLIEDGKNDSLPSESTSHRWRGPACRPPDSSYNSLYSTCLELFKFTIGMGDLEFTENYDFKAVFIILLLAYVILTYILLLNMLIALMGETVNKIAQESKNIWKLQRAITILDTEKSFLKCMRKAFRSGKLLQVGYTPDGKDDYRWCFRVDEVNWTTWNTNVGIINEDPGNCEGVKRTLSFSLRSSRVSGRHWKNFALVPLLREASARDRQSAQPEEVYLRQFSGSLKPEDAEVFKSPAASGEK
Protocol: (§1) The objective of this study was to evaluate the effects in vitro of compound 1 on 3 cloned human channels expressed in HEK293 or CHO cells using the Fluo-8 calcium kit (AAT Bioquest, Inc.), and a Fluorescence Imaging Plate Reader (FLIPR^TETRA™) instrument. The following 3 cloned human channels were evaluated in this study. • 1. Cloned hTRPM8 channels (encoded by the human TRPM8 gene, stably expressed in CHO cells), • 2. Cloned hTRPV1 channels (encoded by the human TRPV1 gene, stably expressed in HEK293 cells), • 3. Cloned hTRPV4 channels (encoded by the human TRPV4 gene, stably expressed in CHO cells).
(§2) The effects of […] (0.001, 0.01, 1, and 10 μM) of compound (1) were evaluated on these three TRP channels (n>3) using the following experimental procedure for each channel tested:
(§3) The ability of compound (1) to act as an antagonist of TRPV1 was evaluated with a calcium influx assay. The signal elicited in the presence of the positive control agonist (0.1 μM capsaicin) was set to 100% and the signal in the presence of the antagonist (5 μM ruthenium red) was set to 0.

Plasma stability, human = format: in vitro ADME
[1] = Plasma Protein Binding, rat; format: in vitro ADME
hERG = hERG (Homo sapiens, UniProt Q12809); assay: hERG binding
hERG, sequence (Q12809 whole entry): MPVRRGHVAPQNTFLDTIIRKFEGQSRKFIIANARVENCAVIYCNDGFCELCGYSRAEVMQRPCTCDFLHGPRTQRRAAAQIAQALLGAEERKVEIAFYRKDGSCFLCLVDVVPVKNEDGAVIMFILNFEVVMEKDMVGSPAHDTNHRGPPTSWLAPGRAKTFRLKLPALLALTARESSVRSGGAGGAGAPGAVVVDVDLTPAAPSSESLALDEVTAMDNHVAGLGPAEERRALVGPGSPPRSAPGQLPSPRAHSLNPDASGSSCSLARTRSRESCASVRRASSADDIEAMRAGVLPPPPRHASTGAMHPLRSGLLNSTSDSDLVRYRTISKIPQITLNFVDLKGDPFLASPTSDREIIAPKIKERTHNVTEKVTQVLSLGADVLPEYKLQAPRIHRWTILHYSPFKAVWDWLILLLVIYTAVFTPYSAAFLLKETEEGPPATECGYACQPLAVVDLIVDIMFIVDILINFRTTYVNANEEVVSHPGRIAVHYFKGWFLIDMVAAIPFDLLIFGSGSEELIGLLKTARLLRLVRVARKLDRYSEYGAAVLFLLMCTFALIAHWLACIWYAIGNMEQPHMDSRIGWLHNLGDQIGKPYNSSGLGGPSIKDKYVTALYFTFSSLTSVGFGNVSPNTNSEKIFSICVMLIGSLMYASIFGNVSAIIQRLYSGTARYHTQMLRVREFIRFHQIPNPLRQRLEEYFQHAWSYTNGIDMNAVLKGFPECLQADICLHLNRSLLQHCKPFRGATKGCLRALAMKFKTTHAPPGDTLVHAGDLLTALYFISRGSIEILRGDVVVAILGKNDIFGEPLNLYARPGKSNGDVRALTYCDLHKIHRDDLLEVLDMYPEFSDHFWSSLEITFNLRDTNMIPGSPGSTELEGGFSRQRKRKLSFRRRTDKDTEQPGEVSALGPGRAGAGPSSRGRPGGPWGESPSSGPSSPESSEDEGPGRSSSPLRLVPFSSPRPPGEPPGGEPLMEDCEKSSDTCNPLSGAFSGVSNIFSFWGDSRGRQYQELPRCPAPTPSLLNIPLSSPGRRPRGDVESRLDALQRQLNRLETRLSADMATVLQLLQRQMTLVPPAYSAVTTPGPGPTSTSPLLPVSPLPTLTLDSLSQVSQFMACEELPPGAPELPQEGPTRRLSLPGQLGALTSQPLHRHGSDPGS

hTRPV4 channels = target: T2, hTRPV4 channels (Homo sapiens, UniProt Q9HBA0); assay: Selectivity analysis, calcium influx assay, hTRPV4 in CHO cells; format: cell-based
T2 construct: expressed in transfected cells; host or cells: CHO
T2 sequence (Q9HBA0 whole entry): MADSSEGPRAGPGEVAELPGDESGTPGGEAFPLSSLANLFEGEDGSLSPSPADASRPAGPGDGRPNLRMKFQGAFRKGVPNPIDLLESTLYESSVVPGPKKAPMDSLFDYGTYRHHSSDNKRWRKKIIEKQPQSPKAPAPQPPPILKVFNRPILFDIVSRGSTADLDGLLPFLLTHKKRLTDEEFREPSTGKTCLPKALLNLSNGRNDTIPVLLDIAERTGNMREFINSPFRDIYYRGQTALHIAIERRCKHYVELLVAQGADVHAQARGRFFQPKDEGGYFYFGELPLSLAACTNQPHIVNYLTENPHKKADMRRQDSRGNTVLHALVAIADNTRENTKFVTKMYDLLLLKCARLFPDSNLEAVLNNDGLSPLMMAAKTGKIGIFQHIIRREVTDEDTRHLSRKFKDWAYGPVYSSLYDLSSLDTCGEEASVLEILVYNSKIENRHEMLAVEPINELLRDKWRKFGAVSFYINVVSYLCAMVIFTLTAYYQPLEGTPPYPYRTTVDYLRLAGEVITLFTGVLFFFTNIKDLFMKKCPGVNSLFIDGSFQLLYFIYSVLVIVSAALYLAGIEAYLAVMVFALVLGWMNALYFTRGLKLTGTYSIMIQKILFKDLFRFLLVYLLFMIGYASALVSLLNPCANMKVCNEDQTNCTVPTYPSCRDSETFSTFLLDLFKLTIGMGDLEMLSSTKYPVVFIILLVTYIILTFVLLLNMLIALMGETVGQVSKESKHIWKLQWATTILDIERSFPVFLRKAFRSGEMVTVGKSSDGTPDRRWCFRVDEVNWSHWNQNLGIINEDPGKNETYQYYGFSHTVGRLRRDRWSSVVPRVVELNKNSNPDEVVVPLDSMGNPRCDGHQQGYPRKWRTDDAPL
Protocol: as §1, §2
as §3, with “TRPV4” for “TRPV1”, “(10” for “(0.1”, “GSK1016790A)” for “capsaicin)”, “0. Values were considered significant if the test article mean was three or more standard deviations away from the positive control agonist mean.” for “0.”

CYP1A2 = target: T3, CYP1A2 (Homo sapiens, UniProt P05177); assay: CYP inhibition 1A2; format: in vitro ADME; conditions: 1A2, 10 μM
T3 sequence (P05177 1-516): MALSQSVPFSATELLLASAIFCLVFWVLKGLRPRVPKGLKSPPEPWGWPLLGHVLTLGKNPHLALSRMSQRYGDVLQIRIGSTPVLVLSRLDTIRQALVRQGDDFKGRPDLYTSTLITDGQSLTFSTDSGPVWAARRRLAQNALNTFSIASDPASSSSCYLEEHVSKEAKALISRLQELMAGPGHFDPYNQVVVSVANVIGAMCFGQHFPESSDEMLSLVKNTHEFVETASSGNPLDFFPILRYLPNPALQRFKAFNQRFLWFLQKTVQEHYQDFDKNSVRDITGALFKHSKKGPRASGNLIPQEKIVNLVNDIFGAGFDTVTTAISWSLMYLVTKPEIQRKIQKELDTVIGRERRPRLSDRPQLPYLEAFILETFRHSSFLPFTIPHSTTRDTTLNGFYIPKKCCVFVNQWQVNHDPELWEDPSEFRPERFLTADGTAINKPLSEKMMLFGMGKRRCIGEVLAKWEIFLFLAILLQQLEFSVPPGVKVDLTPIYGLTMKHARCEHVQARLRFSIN

CYP2C19 = CYP2C19 (Homo sapiens, UniProt P33261); assay: CYP inhibition 2C19; format: in vitro ADME; conditions: 2C19, 10 μM
CYP2C19, sequence (P33261 whole entry): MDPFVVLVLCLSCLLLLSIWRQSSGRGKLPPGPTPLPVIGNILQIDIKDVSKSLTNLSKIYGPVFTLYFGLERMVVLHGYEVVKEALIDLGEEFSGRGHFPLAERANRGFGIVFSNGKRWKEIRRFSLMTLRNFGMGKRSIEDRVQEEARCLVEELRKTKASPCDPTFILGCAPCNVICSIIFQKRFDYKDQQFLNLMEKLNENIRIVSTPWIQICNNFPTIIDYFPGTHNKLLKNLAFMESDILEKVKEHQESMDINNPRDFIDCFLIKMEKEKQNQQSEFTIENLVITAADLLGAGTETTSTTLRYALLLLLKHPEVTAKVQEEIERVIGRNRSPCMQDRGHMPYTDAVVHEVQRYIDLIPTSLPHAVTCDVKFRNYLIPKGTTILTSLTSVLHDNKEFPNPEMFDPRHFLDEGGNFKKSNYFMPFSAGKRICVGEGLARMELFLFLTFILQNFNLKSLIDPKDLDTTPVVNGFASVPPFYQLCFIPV

Plasma stability, rat = format: in vitro ADME
CYP3A4 = CYP3A4 (Homo sapiens, UniProt P08684); assay: CYP inhibition 3A4; format: in vitro ADME; conditions: 3A4, 10 μM
CYP3A4, sequence (P08684 whole entry): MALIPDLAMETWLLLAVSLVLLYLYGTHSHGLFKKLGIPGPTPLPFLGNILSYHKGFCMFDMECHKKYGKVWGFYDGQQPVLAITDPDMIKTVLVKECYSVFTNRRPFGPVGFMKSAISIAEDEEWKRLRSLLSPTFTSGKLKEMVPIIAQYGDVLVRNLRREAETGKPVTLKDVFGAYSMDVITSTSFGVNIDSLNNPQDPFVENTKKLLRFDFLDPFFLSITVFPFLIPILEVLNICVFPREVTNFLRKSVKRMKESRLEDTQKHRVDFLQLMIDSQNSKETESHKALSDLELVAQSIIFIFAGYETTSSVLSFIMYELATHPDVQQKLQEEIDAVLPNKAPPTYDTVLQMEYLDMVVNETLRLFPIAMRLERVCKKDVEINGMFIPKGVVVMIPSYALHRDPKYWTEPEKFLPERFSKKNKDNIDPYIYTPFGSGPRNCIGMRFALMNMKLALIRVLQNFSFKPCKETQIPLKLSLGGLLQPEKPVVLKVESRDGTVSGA

[2] = tested on: rhythmic bladder contractions; assay: Isovolumetric bladder model, intravenous protocol; format: in vivo, rat; conditions: 10 mg/kg i.v., anesthetized female rats
Protocol: Female rats were anesthetized with urethane. Ureters were ligated and sectioned. A catheter was inserted through the urinary meatus into the bladder before urethral ligature. Two protocols for testing compounds were used: intravenous (i.v.) or intravesical (i.ves.) administration.
In the first protocol, the bladder was filled by step of 100 μL of saline every 5 min until the occurrence of rhythmic bladder contractions (RBC). After a 30 min control period, compound (1) dissolved in solutol/NMP solution (2:1 w/w) at a dosage of 10 mg/kg, or vehicle were administered i.v (1 ml in 5 min) […] and the resulting effect was followed for 60 min. For each group, Micturition Frequency (MF) and Amplitude of Micturition (AM) were measured during the control and treatment periods.

CYP2D6 = CYP2D6 (Homo sapiens, UniProt P10635); assay: CYP inhibition 2D6; format: in vitro ADME; conditions: 2D6, 10 μM
CYP2D6, sequence (P10635 whole entry): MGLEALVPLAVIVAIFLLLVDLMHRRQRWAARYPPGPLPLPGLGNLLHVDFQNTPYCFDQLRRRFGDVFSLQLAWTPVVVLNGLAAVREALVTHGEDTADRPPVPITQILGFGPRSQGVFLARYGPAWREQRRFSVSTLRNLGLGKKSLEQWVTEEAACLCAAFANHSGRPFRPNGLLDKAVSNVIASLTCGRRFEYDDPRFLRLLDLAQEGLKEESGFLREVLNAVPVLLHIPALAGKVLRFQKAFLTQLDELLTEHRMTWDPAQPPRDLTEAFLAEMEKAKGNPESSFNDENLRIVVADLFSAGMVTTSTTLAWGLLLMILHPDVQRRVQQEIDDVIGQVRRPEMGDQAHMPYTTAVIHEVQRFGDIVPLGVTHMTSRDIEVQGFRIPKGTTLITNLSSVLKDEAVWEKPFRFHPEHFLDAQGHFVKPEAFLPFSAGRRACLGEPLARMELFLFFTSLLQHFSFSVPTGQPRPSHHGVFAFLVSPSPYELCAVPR

CYP2C9, sequence (P11712 whole entry): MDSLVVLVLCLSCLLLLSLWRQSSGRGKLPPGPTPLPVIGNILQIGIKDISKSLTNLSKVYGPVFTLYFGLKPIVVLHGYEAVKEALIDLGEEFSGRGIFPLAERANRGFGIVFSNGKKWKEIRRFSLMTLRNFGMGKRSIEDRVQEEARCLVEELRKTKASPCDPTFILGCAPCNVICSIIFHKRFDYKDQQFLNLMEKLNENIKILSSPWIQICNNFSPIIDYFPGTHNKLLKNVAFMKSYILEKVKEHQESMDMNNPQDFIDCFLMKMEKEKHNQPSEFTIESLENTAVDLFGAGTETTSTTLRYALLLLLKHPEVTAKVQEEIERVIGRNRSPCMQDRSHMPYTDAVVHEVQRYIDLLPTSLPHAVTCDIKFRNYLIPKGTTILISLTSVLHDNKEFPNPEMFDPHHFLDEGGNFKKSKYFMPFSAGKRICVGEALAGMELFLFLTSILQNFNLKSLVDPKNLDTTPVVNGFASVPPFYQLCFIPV

## Cl.Clc1c(OCCNCc2ccco2)ccc2ccccc12 [Compound 1, 2-[(1-chloronaphthalen-2-yl)oxy]-N-(furan-2-ylmethyl)ethanaminium chloride]
CYP2C9
  inhibition at 10 µM: 63.1%
hepatocytes
  Metabolic stability hepatocytes (% remaining at 120 min @1 μM): 5.0%
hTRPV1 channels; HEK293, 0.001 μM, 0.1 μM capsaicin = 100%, 5 μM ruthenium red = 0, read-out: normalized % inhibition TRPV1
  inhibition at 0.001 µM: -9.14%
hTRPV1 channels; HEK293, 0.01 μM, 0.1 μM capsaicin, read-out: normalized % inhibition TRPV1
  inhibition at 0.01 µM: 5.29%
hTRPV1 channels; HEK293, 0.1 μM, 0.1 μM capsaicin, read-out: normalized % inhibition TRPV1
  inhibition at 0.1 µM: 2.12%
hTRPV1 channels; HEK293, 1 μM, 0.1 μM capsaicin, read-out: normalized % inhibition TRPV1
  inhibition at 1 µM: 5.37%
hTRPV1 channels; HEK293, 10 μM, 0.1 μM capsaicin, read-out: normalized % inhibition TRPV1
  inhibition at 10 µM: 4.9%
hTRPV1 channels; all the assay concentrations
  inhibition of TRPV1 ion channel (in words): do not show any relevant inhibition
Plasma stability, human
  Plasma stability (% remaining) @10 μM: 96%
[1]
  fraction unbound at 10 μM: 0.03
hERG
  hERG binding @10 μM: No effect
hTRPV4 channels; 0.001 μM, 10 μM GSK1016790A = 100%, 5 μM ruthenium red = 0, read-out: normalized % inhibition TRPV4
  inhibition at 0.001 µM: 13.3%
hTRPV4 channels; 0.01 μM, 10 μM GSK1016790A, read-out: normalized % inhibition TRPV4
  inhibition at 0.01 µM: 9.03%
hTRPV4 channels; 0.1 μM, 10 μM GSK1016790A, read-out: normalized % inhibition TRPV4
  inhibition at 0.1 µM: 12.2%
hTRPV4 channels; 1 μM, 10 μM GSK1016790A, read-out: normalized % inhibition TRPV4
  inhibition at 1 µM: 1.97%
hTRPV4 channels; 10 μM, 10 μM GSK1016790A, read-out: normalized % inhibition TRPV4
  inhibition at 10 µM: 85.7%
CYP1A2
  inhibition at 10 µM: 98.8%
CYP2C19
  inhibition at 10 µM: 55.3%
Plasma stability, rat
  Plasma stability (% remaining) @10 μM: 87%
CYP3A4
  inhibition at 10 µM: 33.3%
[2]
  time of inhibition of RBC, higher compared to vehicle group: about 300 sec
[2]; first 30 min
  reduction of Micturition Frequency (MF): about 36%
CYP2D6
  inhibition at 10 µM: 100%
